Assay results as given in patent US20240343717A1, “MICROBIOCIDAL PYRAZOLE DERIVATIVES” (SYNGENTA CROP PROTECTION AG, priority 2021, published 2024).

Key:
Format in all cases: cell-based
[1] = tested on: Botryotinia fuckeliana (Botrytis cinerea); assay: Botryotinia fuckeliana (Botrytis cinerea) / liquid culture (gray mould); details: growth inhibition photometrically 3-4 days after application, read-out: control of Botryotinia fuckeliana
Protocol: (§1) Example B2: Botryotinia fuckeliana (Botrytis cinerea)/Liquid Culture (Gray Mould) Conidia of the fungus from cryogenic storage are directly mixed into nutrient broth (Vogels broth). After placing a (DMSO) solution of test compound into a microtiter plate (96-well format), the nutrient broth containing the fungal spores is added. The test plates are incubated at 24° C. and the inhibition of growth is determined photometrically 3-4 days after application.

[2] = tested on: Monographella nivalis (Microdochium nivale); assay: Monographella nivalis (Microdochium nivale) / liquid culture (foot rot cereals); details: growth inhibition photometrically 4-5 days after application, read-out: control of Monographella nivalis
Protocol: as §1, with “B9: Monographella nivalis (Microdochium nivale)/Liquid” for “B2: Botryotinia fuckeliana (Botrytis cinerea)/Liquid”, “(Foot Rot Cereals)” for “(Gray Mould)”, “(PDB potato dextrose” for “(Vogels”, “4-5” for “3-4”

[3] = tested on: Mycosphaerella graminicola (Septoria tritici); assay: Mycosphaerella graminicola (Septoria tritici) / liquid culture (Septoria blotch); details: Zymoseptoria tritici, growth inhibition photometrically 4-5 days after application, read-out: control of Mycosphaerella graminicola
Protocol: as §1, with “B16: Mycosphaerella graminicola (Septoria tritici)/Liquid” for “B2: Botryotinia fuckeliana (Botrytis cinerea)/Liquid”, “(Septoria Blotch)” for “(Gray Mould)”, “(PDB potato dextrose” for “(Vogels”, “4-5” for “3-4”

[4] = tested on: Glomerella lagenarium (Colletotrichum lagenarium); assay: Glomerella lagenarium (Colletotrichum lagenarium) / liquid culture (anthracnose); details: Colletotrichum orbiculare, growth inhibition photometrically 3-4 days after application, read-out: control of Glomerella lagenarium
Protocol: as §1, with “B3: Glomerella lagenarium (Colletotrichum lagenarium)/Liquid” for “B2: Botryotinia fuckeliana (Botrytis cinerea)/Liquid”, “(Anthracnose)” for “(Gray Mould)”, “(PDB potato dextrose” for “(Vogels”, “measured” for “determined”

| SMILES | inhibition of growth at 20 ppm [1] | inhibition of growth at 20 ppm [2] | inhibition of growth at 20 ppm [3] | inhibition of growth at 20 ppm [4] |
| --- | --- | --- | --- | --- |
| COc1ncc(-c2cccc(C(C)(CNC(=O)c3cc(-c4ccc(F)cc4F)on3)c3cnn(C)c3)n2)c(OC)n1 (stereo not drawn) [Compound P-88, 5-(2,4-difluorophenyl)-N-[2-[6-(2,4-dimethoxypyrimidin-5-yl)-2-pyridyl]-2-(1-methylpyrazol-4-yl)propyl]isoxazole-3-carboxamide] | ≥ 80% | ≥ 80% | ≥ 80% | – |
| Cn1cc(C(C)(CNC(=O)c2cc(-c3ccc(F)cc3F)on2)c2ccc(Br)cn2)cn1 (stereo not drawn) [Compound P-33, N-[2-(5-bromo-2-pyridyl)-2-(1-methylpyrazol-4-yl)propyl]-5-(2,4-difluorophenyl) isoxazole-3-carboxamide] | – | ≥ 80% | ≥ 80% | ≥ 80% |
| Cn1cc(C(C)(CNC(=O)c2cc(-c3ccc(F)cc3F)on2)c2cccc(-c3ccnn3C)n2)cn1 (stereo not drawn) [Compound P-95, 5-(2,4-difluorophenyl)-N-[2-(1-methylpyrazol-4-yl)-2-[6-(2-methylpyrazol-3-yl)-2-pyridyl]propyl] isoxazole-3-carboxamide] | – | ≥ 80% | ≥ 80% | – |
| COc1cccc(C(C)(CNC(=O)c2cc(-c3ccc(F)cc3OC)on2)c2cnn(C)c2)n1 (stereo not drawn) [Compound P-99, 5-(4-fluoro-2-methoxy-phenyl)-N-[2-(6-methoxy-2-pyridyl)-2-(1-methylpyrazol-4-yl)propyl]isoxazole-3-carboxamide] | – | – | ≥ 80% | – |
| Cc1c(-c2cccc(C(C)(CNC(=O)c3cc(-c4ccc(F)cc4F)on3)c3cnn(C)c3)n2)ccnc1F (stereo not drawn) [Compound P-98, 5-(2,4-difluorophenyl)-N-[2-[6-(2-fluoro-3-methyl-4-pyridyl)-2-pyridyl]-2-(1-methylpyrazol-4-yl)propyl]isoxazole-3-carboxamide] | – | – | ≥ 80% | – |
| COc1cc(Cl)nc([C@](C)(CNC(=O)c2cc(-c3ccc(F)cc3F)no2)c2cnn(C)c2)c1 [Compound P-47, N-[(2S)-2-(6-chloro-4-methoxy-2-pyridyl)-2-(1-methylpyrazol-4-yl)propyl]-3-(2,4-difluorophenyl) isoxazole-5-carboxamide] | ≥ 80% | ≥ 80% | ≥ 80% | – |
| Cn1cc(C(C)(CNC(=O)c2cc(-c3ccc(F)cc3F)on2)c2cc(O)cc(Cl)n2)cn1 (stereo not drawn) [Compound P-38, N-[2-(6-chloro-4-hydroxy-2-pyridyl)-2-(1-methylpyrazol-4-yl)propyl]-5-(2,4-difluorophenyl) isoxazole-3-carboxamide] | ≥ 80% | – | ≥ 80% | – |
| Cn1cc(C(C)(CNC(=O)c2cc(-c3ccc(F)cc3F)on2)c2cccc(C3(C#N)CC3)n2)cn1 (stereo not drawn) [Compound P-104, N-[2-[6-(1-cyanocyclopropyl)-2-pyridyl]-2-(1-methylpyrazol-4-yl)propyl]-5-(2,4-difluorophenyl) isoxazole-3-carboxamide] | – | ≥ 80% | ≥ 80% | – |
| Cn1cc(C(C)(CNC(=O)c2cc(-c3ccc(F)cc3F)on2)c2cc(C#N)cc(Cl)n2)cn1 (stereo not drawn) [Compound P-41, N-[2-(6-chloro-4-cyano-2-pyridyl)-2-(1-methylpyrazol-4-yl)propyl]-5-(2,4-difluorophenyl) isoxazole-3-carboxamide] | ≥ 80% | – | ≥ 80% | – |
| COc1cc(C#N)nc(C(C)(CNC(=O)c2cc(-c3ccc(F)cc3F)on2)c2cnn(C)c2)c1 (stereo not drawn) [Compound P-67, N-[2-(6-cyano-4-methoxy-2-pyridyl)-2-(1-methylpyrazol-4-yl)propyl]-5-(2,4-difluorophenyl) isoxazole-3-carboxamide] | – | ≥ 80% | ≥ 80% | – |
| Cn1cc(C(C)(CNC(=O)c2cc(-c3ccc(Cl)cc3Cl)on2)c2cccc(Cl)n2)cn1 (stereo not drawn) [Compound P-28] | – | ≥ 80% | ≥ 80% | ≥ 80% |
| CC(=O)c1ccc(C(C)(CNC(=O)c2cc(-c3ccc(F)cc3F)on2)c2cnn(C)c2)nc1 (stereo not drawn) [Compound P-57, N-[2-(5-acetyl-2-pyridyl)-2-(1-methylpyrazol-4-yl)propyl]-5-(2,4-difluorophenyl) isoxazole-3-carboxamide] | – | ≥ 80% | ≥ 80% | ≥ 80% |
| Cc1noc(C)c1-c1cccc(C(C)(CNC(=O)c2cc(-c3ccc(F)cc3F)on2)c2cnn(C)c2)n1 (stereo not drawn) [Compound P-94, 5-(2,4-difluorophenyl)-N-[2-[6-(3,5-dimethylisoxazol-4-yl)-2-pyridyl]-2-(1-methylpyrazol-4-yl)propyl]isoxazole-3-carboxamide] | – | ≥ 80% | ≥ 80% | – |
| Cc1cc(-c2cccc(C(C)(CNC(=O)c3cc(-c4ccc(F)cc4F)on3)c3cnn(C)c3)n2)ccn1 (stereo not drawn) [Compound P-89, 5-(2,4-difluorophenyl)-N-[2-(1-methylpyrazol-4-yl)-2-[6-(2-methyl-4-pyridyl)-2-pyridyl]propyl] isoxazole-3-carboxamide] | – | ≥ 80% | ≥ 80% | – |
| Cn1cc(C(C)(CNC(=O)c2nnc(-c3ccc(F)cc3F)s2)c2ncccc2Cl)cn1 (stereo not drawn) [Compound P-1, N-[2-(3-chloro-2-pyridyl)-2-(1-methylpyrazol-4-yl)propyl]-5-(2,4-difluorophenyl)-1,3,4-thiadiazole-2-carboxamide] | ≥ 80% | ≥ 80% | ≥ 80% | – |
| Cn1cc(C(C)(CNC(=O)c2cc(-c3ccc(F)cc3F)on2)c2cc(Cl)ccn2)cn1 (stereo not drawn) [Compound P-18, N-[2-(4-chloro-2-pyridyl)-2-(1-methylpyrazol-4-yl)propyl]-5-(2,4-difluorophenyl) isoxazole-3-carboxamide] | – | ≥ 80% | ≥ 80% | – |
| COc1ccc(C(C)(CNC(=O)c2cc(-c3ccc(F)cc3F)on2)c2cnn(C)c2)nc1Br (stereo not drawn) [Compound P-109, N-[2-(6-bromo-5-methoxy-2-pyridyl)-2-(1-methylpyrazol-4-yl)propyl]-5-(2,4-difluorophenyl) isoxazole-3-carboxamide] | – | – | ≥ 80% | – |
| Cc1cc(C(=O)NCC(C)(c2cnn(C)c2)c2cccc(Cl)n2)no1 (stereo not drawn) [Compound P-77, N-[2-(6-chloro-2-pyridyl)-2-(1-methylpyrazol-4-yl)propyl]-5-methyl-isoxazole-3-carboxamide] | – | – | ≥ 80% | – |
| COc1ccc(C(C)=O)nc1C(C)(CNC(=O)c1cc(-c2ccc(F)cc2F)on1)c1cnn(C)c1 (stereo not drawn) [Compound P-112] | – | – | ≥ 80% | – |
| Cn1cc(C(CNC(=O)c2cc(-c3ccc(F)cc3F)on2)c2cccc(Cl)n2)cn1 (stereo not drawn) [Compound P-13, N-[2-(6-chloro-2-pyridyl)-2-(1-methylpyrazol-4-yl)ethyl]-5-(2,4-difluorophenyl)isoxazole-3-carboxamide] | ≥ 80% | ≥ 80% | ≥ 80% | – |
| Cc1cncc(-c2cccc(C(C)(CNC(=O)c3cc(-c4ccc(F)cc4F)on3)c3cnn(C)c3)n2)c1 (stereo not drawn) [Compound P-91, 5-(2,4-difluorophenyl)-N-[2-(1-methylpyrazol-4-yl)-2-[6-(5-methyl-3-pyridyl)-2-pyridyl]propyl] isoxazole-3-carboxamide] | – | ≥ 80% | ≥ 80% | – |
| Cn1cc(C(C)(CNC(=O)c2cc(-c3ccc(F)cc3F)on2)c2ccc(N)cn2)cn1 (stereo not drawn) [Compound P-58, N-[2-(5-amino-2-pyridyl)-2-(1-methylpyrazol-4-yl)propyl]-5-(2,4-difluorophenyl) isoxazole-3-carboxamide] | – | ≥ 80% | – | – |
| Cn1cc(C(C)(CNC(=O)c2cc(-c3ccc(F)cc3F)on2)c2cc(Br)ccn2)cn1 (stereo not drawn) [Compound P-66, N-[2-(4-bromo-2-pyridyl)-2-(1-methylpyrazol-4-yl)propyl]-5-(2,4-difluorophenyl) isoxazole-3-carboxamide] | – | – | ≥ 80% | – |
| Cc1ncc(-c2cccc(C(C)(CNC(=O)c3cc(-c4ccc(F)cc4F)on3)c3cnn(C)c3)n2)cc1F (stereo not drawn) [Compound P-97, 5-(2,4-difluorophenyl)-N-[2-[6-(5-fluoro-6-methyl-3-pyridyl)-2-pyridyl]-2-(1-methylpyrazol-4-yl)propyl]isoxazole-3-carboxamide] | – | – | ≥ 80% | – |
| COC(=O)c1ccc(C(C)(CNC(=O)c2cc(-c3ccc(F)cc3F)on2)c2cnn(C)c2)nc1 (stereo not drawn) [Compound P-55, methyl 6-[2-[[5-(2,4-difluorophenyl)isoxazole-3-carbonyl]amino]-1-methyl-1-(1-methylpyrazol-4-yl)ethyl]pyridine-3-carboxylate] | ≥ 80% | ≥ 80% | ≥ 80% | ≥ 80% |
